From patent publication US10301284B2, “Therapeutic inhibitory compounds” (LifeSci Pharmaceuticals, Inc., priority 2016, dated 2019)
Like-named read-outs stand apart in the source and are kept apart here.

How the values were obtained:
[1] = Pharmacokinetic evaluation, oral exposure in rats; assay type: in vivo; conditions: male Sprague-Dawley rats, single oral dose 10 mg/kg via oral gavage, plasma
Experimental: Pharmacokinetic studies of select compounds were performed to assess the pharmacokinetic properties. Male Sprague-Dawley rats were administered a single oral dose of the test compound at 10 mg/kg (dose concentration: 2 mg/mL, dose volume: 5 ml/kg) via oral gavage. Blood samples were collected via jugular vein at pre-dose, post-dose 5 min, 15 min, 30 min, 1 h, 2 h, 4 h, 6 h, 8 h, 10 h and 24 h, and centrifuged (8000 rpm for 6 minutes at 2-8° C.). The resulting plasma fractions were analyzed by LC/MS/MS to determine the concentration of the test compound.

human Plasma Kallikrein [2] = molecular target: T1, human Plasma Kallikrein (Homo sapiens (Human), UniProt P03952); experiment: Human whole blood kallikrein inhibition (ellagic acid-activated human plasma, Z-FR-2-AMC substrate); assay type: biochemical
Experimental: The ability of the compounds disclosed herein to inhibit human plasma kallikrein activity was quantified according to the procedures below.
All dilutions were prepared in an assay buffer comprising 50 mM Tris-HCl pH 7.2, 150 mM NaCl, and 0.01% Triton X-100.
Human plasma was thawed on ice and centrifuged for 15 min at 4° C. to remove platelets. A 1 mM stock solution of ellagic acid was diluted to 8 μM and mixed with human plasma, after removing platelets, at a ratio of 1:0.8. The mixture of human plasma and ellagic acid was further diluted 32-fold in the assay buffer, to yield the final mixture for use in the inhibition assay.
A 22.5 μL volume of the final mixture of human plasma and ellagic acid was added to a 96-well microwell plate and the plate was incubated for 15 min at 37° C.
The test compound solution was prepared to provide final concentrations of 20 μM, 5 μM, 1.25 μM, 312.5 nM, 78.125 nM, 19.531 nM, 4.883 nM, 1.221 nM, 0.305 nM, and 0.076 nM. Each test compound concentration was tested in duplicates.
In addition to the inhibitor control and test wells, the 96 well assay plate included positive control wells which contain the mixture of human plasma and ellagic acid without test compounds, and background wells which contain neither the mixture of human plasma and ellagic acid nor the test compounds. The total volume of liquid in positive control and background wells was brought up to 35 μL using the assay buffer.
The assay plate containing test compounds mixed with human plasma and ellagic acid and appropriate controls was incubated at 37° C. for 5 min. A 10 mM stock solution of substrate Z-FR-2-AMC was diluted to 133.2 μM in the assay buffer, and 15 μL of the diluted substrate was added to each well, to yield a final substrate concentration of 40 μM in each well. The reagents were mixed by shaking the plate gently for 30 sec.
The enzyme reaction was quantified by immediate kinetic reading of the assay plate using excitation/emission wavelengths of 330 nm/440 nm respectively. Fluorescence intensity was recorded for 60 min, using a time interval of 43 sec.
The inhibition activity of the test compounds were evaluated using the IC50 values, calculated according to the dose-response curve of the test compounds, fitted using the “log(inhibitor)−response(variable slope)” equation in GraphPadPrism software (GraphPad Software, Inc.).
The percentage inhibition (EC50) was calculated using the following equation:
[formula] where, Mean(BG) is the average value of the fluorescence intensity of the background wells and Mean(PC) is the average value of the fluorescence intensity of the positive control wells.

human Plasma Kallikrein [3] = molecular target: T1, human Plasma Kallikrein; experiment: In vitro enzyme inhibition of human plasma kallikrein (Pro-Phe-Arg-AMC cleavage); assay type: biochemical; conditions: human plasma kallikrein, PFR-AMC substrate, 37° C.; read-out: hPK IC50
In short: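 Human plasma kallikrein preincubated 5 min at 37 °C with compound in 50 mM Tris-HCl pH 7.5, 150 mM NaCl, 0.01% Triton X-100. Reaction started with Pro-Phe-Arg-AMC, fluorescence read every 43 s for 1 h at 37 °C. IC50 from highest mean velocity over 20 reads (~15 min).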

[4] = human plasma activated with ellagic acid, Z-FR-2-AMC 40 μM, 37° C., read-out: HWB EC50

T1 sequence (P03952 391-638 limits assumed): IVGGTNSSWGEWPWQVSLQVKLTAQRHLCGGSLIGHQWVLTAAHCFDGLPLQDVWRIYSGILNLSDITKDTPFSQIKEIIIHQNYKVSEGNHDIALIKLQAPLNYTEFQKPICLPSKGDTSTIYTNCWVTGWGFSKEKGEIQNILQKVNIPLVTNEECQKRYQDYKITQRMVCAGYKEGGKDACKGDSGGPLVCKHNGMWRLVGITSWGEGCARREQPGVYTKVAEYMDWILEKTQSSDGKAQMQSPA
T1 sequence (P03952 20-390 partner limits assumed): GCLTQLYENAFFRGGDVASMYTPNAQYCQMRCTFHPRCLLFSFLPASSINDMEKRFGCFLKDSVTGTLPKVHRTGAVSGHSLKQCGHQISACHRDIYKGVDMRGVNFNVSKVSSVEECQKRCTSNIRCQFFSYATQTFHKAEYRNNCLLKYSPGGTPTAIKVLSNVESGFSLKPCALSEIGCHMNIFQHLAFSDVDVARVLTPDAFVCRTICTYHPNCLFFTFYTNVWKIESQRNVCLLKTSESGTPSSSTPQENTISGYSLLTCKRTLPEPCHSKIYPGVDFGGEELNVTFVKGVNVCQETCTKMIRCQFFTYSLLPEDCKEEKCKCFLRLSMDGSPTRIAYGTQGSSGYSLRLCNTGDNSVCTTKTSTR

Compound	AUC ([1]; rat, read-out: AUC) [µg·h/mL]	EC50 (human Plasma Kallikrein [2]) [µM]	IC50 (human Plasma Kallikrein [3]) [µM]	EC50 (human Plasma Kallikrein [2]; [4]) [µM]	AUC [1]
Cc1cc(N)nc(C)c1CNC(=O)c1cn(Cc2ccc3ncc(Cl)cc3c2)c2cnccc12 [Example 16, N-((6-amino-2,4-dimethylpyridin-3-yl)methyl)-1-((3-chloroquinolin-6-yl)methyl)-1H-pyrrolo[2,3-c]pyridine-3-carboxamide]	0.1 to 1	< 0.1	< 0.1		
Cc1cc(N)nc(C)c1CNC(=O)c1nc(Cc2ccc3ncc(Cl)cc3c2)no1 [Example 6, N-((6-amino-2,4-dimethylpyridin-3-yl)methyl)-3-((3-chloroquinolin-6-yl)methyl)-1,2,4-oxadiazole-5-carboxamide]	0.1 to 1		< 0.1	< 0.1	
COc1nn(Cc2ccc3ncc(Cl)cc3c2)cc1C(=O)NCc1c(C)cc(N)nc1C [Example 39, N-((6-amino-2,4-dimethylpyridin-3-yl)methyl)-1-((3-chloroquinolin-6-yl)methyl)-3-methoxy-1H-pyrazole-4-carboxamide]	1 to 10		< 0.1	< 0.1	
Cc1cc(N)nc(C)c1CNC(=O)c1nn(Cc2ccc3ncc(Cl)cc3c2)cc1C#N [Example 36, N-((6-amino-2,4-dimethylpyridin-3-yl)methyl)-1-((3-chloroquinolin-6-yl)methyl)-4-cyano-1H-pyrazole-3-carboxamide]	0.1 to 1		< 0.1	< 0.1	
Cc1cc(N)nc(C)c1CNC(=O)c1cn(Cc2ccc3ncc(Cl)cc3c2)nn1 [Example 10, N-((6-amino-2,4-dimethylpyridin-3-yl)methyl)-1-((3-chloroquinolin-6-yl)methyl)-1H-1,2,3-triazole-4-carboxamide]	1 to 10		< 0.1	< 0.1	
Cc1cc(N)nc(C)c1CNC(=O)c1nc(Cc2ccc3ncc(Cl)cc3c2)n2ccccc12 [Example 9, N-((6-amino-2,4-dimethylpyridin-3-yl)methyl)-3-((3-chloroquinolin-6-yl)methyl)imidazo[1,5-a]pyridine-1-carboxamide]	0.1 to 1		< 0.1	< 0.1	
CC(=O)Nc1cn(Cc2ccc3ncc(Cl)cc3c2)nc1C(=O)NCc1c(C)cc(N)nc1C [Example 19, 4-acetamido-N-((6-amino-2,4-dimethylpyridin-3-yl)methyl)-1-((3-chloroquinolin-6-yl)methyl)-1H-pyrazole-3-carboxamide]	0.1 to 1		< 0.1	< 0.1	
Cc1cc(N)nc(C)c1CNC(=O)c1nn(Cc2ccc3ncc(Cl)cc3c2)c2cncc(C#N)c12 [Example 129, N-((6-amino-2,4-dimethylpyridin-3-yl)methyl)-1-((3-chloroquinolin-6-yl)methyl)-4-cyano-1H-pyrazolo[3,4-c]pyridine-3-carboxamide]	< 0.1	< 0.1	< 0.1		
Cc1cc(N)nc(C)c1CNC(=O)c1ccn(Cc2ccc3ncc(Cl)cc3c2)n1 [Example 1, N-((6-amino-2,4-dimethylpyridin-3-yl)methyl)-1-((3-chloroquinolin-6-yl)methyl)-1H-pyrazole-3-carboxamide]	0.1 to 1			< 0.1	
Cc1cnc2c(C#N)cc(Cn3cc(C(=O)NCc4c(C)cc(N)nc4C)c(C#N)n3)cc2c1 [Example 62, N-((6-amino-2,4-dimethylpyridin-3-yl)methyl)-3-cyano-1-((8-cyano-3-methylquinolin-6-yl)methyl)-1H-pyrazole-4-carboxamide]	< 0.1		< 0.1	< 0.1	
Cc1cc(N)nc(C)c1CNC(=O)c1cn(Cc2ccc3ncc(Cl)cc3c2)c2cncc(C#N)c12 [Example 123, N-((6-amino-2,4-dimethylpyridin-3-yl)methyl)-1-((3-chloroquinolin-6-yl)methyl)-4-cyano-1H-pyrrolo[2,3-c]pyridine-3-carboxamide]	< 0.1	< 0.1	< 0.1		
Cc1cc(N)nc(C)c1CNC(=O)c1oc(Cc2ccc3ncc(Cl)cc3c2)nc1C(F)(F)F [Example 37, N-((6-amino-2,4-dimethylpyridin-3-yl)methyl)-2-((3-chloroquinolin-6-yl)methyl)-4-(trifluoromethyl)oxazole-5-carboxamide]	0.1 to 1		< 0.1	< 0.1	
Cc1cc(N)nc(C)c1CNC(=O)c1cn(Cc2ccc3ncc(Cl)cc3c2)c2ccc(=O)[nH]c12 [Example 126, N-((6-amino-2,4-dimethylpyridin-3-yl)methyl)-1-((3-chloroquinolin-6-yl)methyl)-5-oxo-4,5-dihydro-1H-pyrrolo[3,2-b]pyridine-3-carboxamide]			< 0.1	< 0.1	
4-amino-N-((6-amino-2,4-dimethylpyridin-3-yl)methyl)-1-((3-chloroquinolin-6-yl)methyl)-1H-pyrazole-3-carboxamide [Example 25]			< 0.1	< 0.1	C (>1000 ng · h/mL to ≤10,000 ng · h/mL)
Cc1cc(N)nc(C)c1CNC(=O)c1coc(Cc2ccc3ncc(Cl)cc3c2)n1 [Example 29, N-((6-amino-2,4-dimethylpyridin-3-yl)methyl)-2-((3-chloroquinolin-6-yl)methyl)oxazole-4-carboxamide]	1 to 10		< 0.1	< 0.1	
Cc1cc(N)nc(C)c1CNC(=O)c1nn(Cc2ccc3ncc(Cl)cc3c2)c2ccc(=O)[nH]c12 [Example 138, N-((6-amino-2,4-dimethylpyridin-3-yl)methyl)-1-((3-chloroquinolin-6-yl)methyl)-5-oxo-4,5-dihydro-1H-pyrazolo[4,3-b]pyridine-3-carboxamide]	< 0.1	< 0.1	< 0.1		
Cc1cc(N)nc(C)c1CNC(=O)c1cn(Cc2cc(C#N)c3ncc(Cl)cc3c2)nc1C#N [Example 69, N-((6-amino-2,4-dimethylpyridin-3-yl)methyl)-1-((3-chloro-8-cyanoquinolin-6-yl)methyl)-3-cyano-1H-pyrazole-4-carboxamide]	< 0.1		< 0.1	< 0.1	
Cc1cc(N)nc(C)c1CNC(=O)c1cn(Cc2ccc3ncc(Cl)cc3c2)cn1 [Example 3, N-((6-amino-2,4-dimethylpyridin-3-yl)methyl)-1-((3-chloroquinolin-6-yl)methyl)-1H-imidazole-4-carboxamide]	0.1 to 1		< 0.1	< 0.1	
Cc1cc(N)nc(C)c1CNC(=O)c1nnc(Cc2ccc3ncc(Cl)cc3c2)n1C [Example 98, N-((6-amino-2,4-dimethylpyridin-3-yl)methyl)-5-((3-chloroquinolin-6-yl)methyl)-4-methyl-4H-1,2,4-triazole-3-carboxamide]	1 to 10		< 0.1	< 0.1	
Cc1cc(N)nc(C)c1CNC(=O)c1cn(Cc2ccc3ncc(Cl)cc3c2)c(N)n1 [Example 28, 2-amino-N-((6-amino-2,4-dimethylpyridin-3-yl)methyl)-1-((3-chloroquinolin-6-yl)methyl)-1H-imidazole-4-carboxamide]	< 0.1		< 0.1	< 0.1	
Cc1nc(N)ccc1CNC(=O)c1cn(Cc2ccc3ncc(C(F)(F)F)cc3c2)nc1C#N [Example 74, N-((6-amino-2-methylpyridin-3-yl)methyl)-3-cyano-1-((3-(trifluoromethyl)quinolin-6-yl)methyl)-1H-pyrazole-4-carboxamide]	1 to 10		< 0.1	< 0.1	
Cc1cc(N)nc(C)c1CNC(=O)c1cnc(Cc2ccc3ncc(Cl)cc3c2)o1 [Example 114, N-((6-amino-2,4-dimethylpyridin-3-yl)methyl)-2-((3-chloroquinolin-6-yl)methyl)oxazole-5-carboxamide]	1 to 10			< 0.1	
